Source: ChEMBL document CHEMBL3991601, “The target landscape of clinical kinase drugs” (Science, 2017)
The source made the active and inactive calls.

How the values were obtained:
[1] = target: T1, Serine/threonine-protein kinase TAO3 (Homo sapiens, UniProt Q9H2K8)
T1 sequence (Q9H2K8 whole entry): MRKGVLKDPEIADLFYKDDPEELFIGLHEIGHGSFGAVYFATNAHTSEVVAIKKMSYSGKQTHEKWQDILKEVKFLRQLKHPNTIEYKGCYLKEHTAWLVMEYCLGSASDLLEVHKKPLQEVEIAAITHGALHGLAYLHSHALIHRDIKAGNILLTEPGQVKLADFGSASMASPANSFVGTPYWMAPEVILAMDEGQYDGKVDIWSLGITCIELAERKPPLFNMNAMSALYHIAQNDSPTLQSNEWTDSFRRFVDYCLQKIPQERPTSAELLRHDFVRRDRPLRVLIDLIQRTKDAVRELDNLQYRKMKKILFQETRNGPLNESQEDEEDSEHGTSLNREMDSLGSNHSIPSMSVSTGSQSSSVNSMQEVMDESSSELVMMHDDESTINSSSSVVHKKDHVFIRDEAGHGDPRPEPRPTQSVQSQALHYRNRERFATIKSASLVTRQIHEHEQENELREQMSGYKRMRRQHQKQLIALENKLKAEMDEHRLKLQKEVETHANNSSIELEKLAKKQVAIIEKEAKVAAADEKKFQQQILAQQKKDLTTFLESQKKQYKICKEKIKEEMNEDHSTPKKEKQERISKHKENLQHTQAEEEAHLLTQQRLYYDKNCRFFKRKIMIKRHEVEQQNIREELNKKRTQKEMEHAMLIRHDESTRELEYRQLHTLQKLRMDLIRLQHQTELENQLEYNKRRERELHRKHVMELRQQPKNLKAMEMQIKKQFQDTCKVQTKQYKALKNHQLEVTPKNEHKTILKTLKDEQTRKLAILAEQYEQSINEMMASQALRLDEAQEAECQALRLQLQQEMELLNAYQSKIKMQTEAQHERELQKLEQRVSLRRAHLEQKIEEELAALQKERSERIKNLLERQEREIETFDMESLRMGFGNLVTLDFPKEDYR

[2] = target: U5 small nuclear ribonucleoprotein 200 kDa helicase (Homo sapiens, UniProt O75643)
Sequence of U5 small nuclear ribonucleoprotein 200 kDa helicase (O75643 whole entry): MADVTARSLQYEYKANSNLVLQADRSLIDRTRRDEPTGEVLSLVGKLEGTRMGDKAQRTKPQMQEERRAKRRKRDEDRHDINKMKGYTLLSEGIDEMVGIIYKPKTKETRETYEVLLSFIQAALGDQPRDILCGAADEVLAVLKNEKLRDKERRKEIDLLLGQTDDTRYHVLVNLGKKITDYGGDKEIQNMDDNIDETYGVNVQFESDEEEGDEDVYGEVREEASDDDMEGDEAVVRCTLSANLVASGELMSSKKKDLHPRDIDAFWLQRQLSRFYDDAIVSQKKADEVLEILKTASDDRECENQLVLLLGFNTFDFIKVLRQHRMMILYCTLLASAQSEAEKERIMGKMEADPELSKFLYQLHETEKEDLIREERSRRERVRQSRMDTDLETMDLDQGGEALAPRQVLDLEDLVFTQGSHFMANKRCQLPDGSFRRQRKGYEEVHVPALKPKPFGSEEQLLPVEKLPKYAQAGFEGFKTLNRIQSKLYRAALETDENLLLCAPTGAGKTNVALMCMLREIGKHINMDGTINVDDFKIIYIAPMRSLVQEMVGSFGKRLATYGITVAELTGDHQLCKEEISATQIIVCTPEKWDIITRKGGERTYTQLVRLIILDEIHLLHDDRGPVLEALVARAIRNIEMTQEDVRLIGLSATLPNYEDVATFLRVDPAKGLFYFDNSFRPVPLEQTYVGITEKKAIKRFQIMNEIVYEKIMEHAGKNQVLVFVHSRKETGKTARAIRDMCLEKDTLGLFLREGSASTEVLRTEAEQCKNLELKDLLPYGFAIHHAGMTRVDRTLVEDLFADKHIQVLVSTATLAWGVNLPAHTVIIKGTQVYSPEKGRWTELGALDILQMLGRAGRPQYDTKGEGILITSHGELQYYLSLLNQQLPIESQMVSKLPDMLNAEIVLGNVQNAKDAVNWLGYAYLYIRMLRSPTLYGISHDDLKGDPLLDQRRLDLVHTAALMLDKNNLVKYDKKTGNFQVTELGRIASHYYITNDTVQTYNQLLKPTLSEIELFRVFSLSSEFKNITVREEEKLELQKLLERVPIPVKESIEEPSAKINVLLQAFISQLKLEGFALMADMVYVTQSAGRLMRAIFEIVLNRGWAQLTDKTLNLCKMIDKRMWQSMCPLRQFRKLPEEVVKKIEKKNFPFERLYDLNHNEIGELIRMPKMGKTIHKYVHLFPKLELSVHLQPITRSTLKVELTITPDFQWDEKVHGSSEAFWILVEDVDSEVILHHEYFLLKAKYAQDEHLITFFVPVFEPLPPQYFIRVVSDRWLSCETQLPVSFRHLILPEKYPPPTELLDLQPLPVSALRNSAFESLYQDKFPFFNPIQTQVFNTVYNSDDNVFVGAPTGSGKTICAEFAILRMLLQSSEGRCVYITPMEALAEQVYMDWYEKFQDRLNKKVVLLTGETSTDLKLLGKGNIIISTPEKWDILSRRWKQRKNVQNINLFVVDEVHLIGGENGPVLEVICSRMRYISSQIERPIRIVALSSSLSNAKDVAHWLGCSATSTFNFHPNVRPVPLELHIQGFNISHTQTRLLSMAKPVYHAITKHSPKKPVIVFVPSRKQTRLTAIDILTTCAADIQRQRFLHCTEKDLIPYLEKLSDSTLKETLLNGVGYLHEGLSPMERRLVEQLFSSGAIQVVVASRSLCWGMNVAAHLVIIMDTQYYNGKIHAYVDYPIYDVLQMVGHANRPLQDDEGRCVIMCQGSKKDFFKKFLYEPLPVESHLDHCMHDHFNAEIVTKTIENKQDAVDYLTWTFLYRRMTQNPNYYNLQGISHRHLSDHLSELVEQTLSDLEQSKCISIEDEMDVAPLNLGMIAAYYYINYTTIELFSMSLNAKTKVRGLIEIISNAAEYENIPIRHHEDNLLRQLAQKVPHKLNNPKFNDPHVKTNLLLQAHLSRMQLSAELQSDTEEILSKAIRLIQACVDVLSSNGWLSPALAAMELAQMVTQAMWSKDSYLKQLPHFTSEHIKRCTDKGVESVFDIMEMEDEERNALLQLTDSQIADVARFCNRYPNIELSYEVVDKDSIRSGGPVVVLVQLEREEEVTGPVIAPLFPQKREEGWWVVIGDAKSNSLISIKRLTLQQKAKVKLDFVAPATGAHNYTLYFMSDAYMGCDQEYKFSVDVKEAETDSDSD

[3] = target: ATP-dependent RNA helicase DDX3X (Homo sapiens, UniProt O00571)
Sequence of ATP-dependent RNA helicase DDX3X (O00571 whole entry): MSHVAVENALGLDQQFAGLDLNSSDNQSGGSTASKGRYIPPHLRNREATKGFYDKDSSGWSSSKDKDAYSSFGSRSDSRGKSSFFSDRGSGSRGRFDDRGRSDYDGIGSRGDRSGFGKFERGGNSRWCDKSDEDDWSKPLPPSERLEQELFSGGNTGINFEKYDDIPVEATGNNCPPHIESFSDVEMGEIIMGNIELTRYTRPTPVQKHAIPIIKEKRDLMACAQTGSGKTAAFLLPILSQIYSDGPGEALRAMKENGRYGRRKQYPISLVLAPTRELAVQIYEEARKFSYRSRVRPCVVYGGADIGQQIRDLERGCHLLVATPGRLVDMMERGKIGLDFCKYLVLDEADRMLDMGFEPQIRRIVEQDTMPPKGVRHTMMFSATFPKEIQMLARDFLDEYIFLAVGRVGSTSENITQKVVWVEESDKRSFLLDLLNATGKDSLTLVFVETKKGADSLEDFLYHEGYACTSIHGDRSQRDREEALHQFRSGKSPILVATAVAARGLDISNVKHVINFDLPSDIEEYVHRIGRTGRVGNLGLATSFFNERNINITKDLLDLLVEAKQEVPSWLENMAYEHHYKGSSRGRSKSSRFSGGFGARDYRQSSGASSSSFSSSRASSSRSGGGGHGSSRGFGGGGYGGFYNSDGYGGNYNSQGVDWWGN

[4] = target: T2, ATP-dependent 6-phosphofructokinase, platelet type (Homo sapiens, UniProt Q01813)
T2 sequence (Q01813 whole entry): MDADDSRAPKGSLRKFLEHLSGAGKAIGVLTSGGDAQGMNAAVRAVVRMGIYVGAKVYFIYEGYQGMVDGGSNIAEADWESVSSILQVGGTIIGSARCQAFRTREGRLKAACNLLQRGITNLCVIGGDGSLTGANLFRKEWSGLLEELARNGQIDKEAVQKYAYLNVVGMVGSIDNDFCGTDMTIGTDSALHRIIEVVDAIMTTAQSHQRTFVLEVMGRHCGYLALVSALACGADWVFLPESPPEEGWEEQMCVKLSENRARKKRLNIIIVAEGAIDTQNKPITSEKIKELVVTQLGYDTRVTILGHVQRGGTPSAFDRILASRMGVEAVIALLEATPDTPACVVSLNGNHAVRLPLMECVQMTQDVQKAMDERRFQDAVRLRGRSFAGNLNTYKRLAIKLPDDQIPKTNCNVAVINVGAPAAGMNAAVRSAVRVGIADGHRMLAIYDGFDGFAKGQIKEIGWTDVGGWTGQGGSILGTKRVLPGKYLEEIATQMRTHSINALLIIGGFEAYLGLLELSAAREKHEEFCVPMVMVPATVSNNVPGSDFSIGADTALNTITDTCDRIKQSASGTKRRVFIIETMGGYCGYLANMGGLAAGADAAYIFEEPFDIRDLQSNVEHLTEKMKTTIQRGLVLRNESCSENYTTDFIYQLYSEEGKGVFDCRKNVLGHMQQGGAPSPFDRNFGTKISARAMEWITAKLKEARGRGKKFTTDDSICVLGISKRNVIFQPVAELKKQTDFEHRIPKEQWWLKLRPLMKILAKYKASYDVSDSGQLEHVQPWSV

[5] = target: T3, Ribosyldihydronicotinamide dehydrogenase [quinone] (Homo sapiens, UniProt P16083)
T3 sequence (P16083 whole entry): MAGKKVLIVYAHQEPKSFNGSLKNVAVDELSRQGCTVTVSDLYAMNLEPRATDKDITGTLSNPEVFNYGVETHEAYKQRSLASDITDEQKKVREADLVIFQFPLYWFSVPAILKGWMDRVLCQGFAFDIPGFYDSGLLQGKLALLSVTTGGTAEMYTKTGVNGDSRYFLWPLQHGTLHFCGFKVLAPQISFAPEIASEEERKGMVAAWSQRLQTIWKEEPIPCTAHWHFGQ

[6] = target: Calcium/calmodulin-dependent protein kinase kinase 2 (Homo sapiens, UniProt Q96RR4)
Sequence of Calcium/calmodulin-dependent protein kinase kinase 2 (Q96RR4 whole entry): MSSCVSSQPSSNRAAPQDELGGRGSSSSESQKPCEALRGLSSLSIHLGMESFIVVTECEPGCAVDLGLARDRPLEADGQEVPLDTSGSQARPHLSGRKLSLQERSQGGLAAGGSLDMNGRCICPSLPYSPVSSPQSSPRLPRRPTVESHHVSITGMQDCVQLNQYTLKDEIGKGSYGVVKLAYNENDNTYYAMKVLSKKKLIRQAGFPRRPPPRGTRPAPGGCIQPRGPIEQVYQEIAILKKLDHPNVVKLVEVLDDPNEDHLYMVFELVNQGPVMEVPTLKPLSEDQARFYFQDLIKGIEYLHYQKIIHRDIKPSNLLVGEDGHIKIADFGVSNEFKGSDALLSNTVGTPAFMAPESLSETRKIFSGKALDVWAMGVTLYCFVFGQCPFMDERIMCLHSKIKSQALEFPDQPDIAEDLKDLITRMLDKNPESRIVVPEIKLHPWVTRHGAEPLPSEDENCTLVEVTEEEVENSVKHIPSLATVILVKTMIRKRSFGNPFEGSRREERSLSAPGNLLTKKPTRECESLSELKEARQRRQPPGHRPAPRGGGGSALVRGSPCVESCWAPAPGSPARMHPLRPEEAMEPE

[7] = target: Serine/threonine-protein kinase 26 (Homo sapiens, UniProt Q9P289)
[8] = target: Serine/threonine-protein kinase/endoribonuclease IRE2 (Homo sapiens, UniProt Q76MJ5)
Sequence of Serine/threonine-protein kinase/endoribonuclease IRE2 (Q76MJ5 whole entry): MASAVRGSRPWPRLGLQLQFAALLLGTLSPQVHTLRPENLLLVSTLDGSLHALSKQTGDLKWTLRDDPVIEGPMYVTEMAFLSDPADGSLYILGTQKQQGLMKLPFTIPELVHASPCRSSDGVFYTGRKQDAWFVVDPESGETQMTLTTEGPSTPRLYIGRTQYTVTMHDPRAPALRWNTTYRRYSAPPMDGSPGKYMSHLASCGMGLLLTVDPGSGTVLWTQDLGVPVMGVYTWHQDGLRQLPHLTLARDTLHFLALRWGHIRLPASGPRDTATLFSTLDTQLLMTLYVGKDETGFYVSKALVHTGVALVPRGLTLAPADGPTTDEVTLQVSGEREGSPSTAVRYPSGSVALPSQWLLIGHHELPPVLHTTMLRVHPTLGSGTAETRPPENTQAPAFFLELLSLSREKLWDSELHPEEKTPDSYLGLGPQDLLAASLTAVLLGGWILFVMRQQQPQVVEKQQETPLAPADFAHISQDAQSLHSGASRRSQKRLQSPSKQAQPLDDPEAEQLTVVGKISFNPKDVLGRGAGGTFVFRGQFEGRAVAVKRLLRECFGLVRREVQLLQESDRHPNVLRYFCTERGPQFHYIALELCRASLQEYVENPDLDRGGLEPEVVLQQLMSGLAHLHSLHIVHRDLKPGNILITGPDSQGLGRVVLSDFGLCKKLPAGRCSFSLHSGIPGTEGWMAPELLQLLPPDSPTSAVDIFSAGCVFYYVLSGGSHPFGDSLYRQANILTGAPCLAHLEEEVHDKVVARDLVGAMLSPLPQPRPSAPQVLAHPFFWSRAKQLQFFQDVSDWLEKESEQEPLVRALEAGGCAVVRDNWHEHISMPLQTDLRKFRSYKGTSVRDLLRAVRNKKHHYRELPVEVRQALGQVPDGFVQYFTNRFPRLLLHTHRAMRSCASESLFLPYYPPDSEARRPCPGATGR

[9] = target: Tyrosine-protein kinase Lck (Homo sapiens, UniProt P06239)
Sequence of Tyrosine-protein kinase Lck (P06239 whole entry): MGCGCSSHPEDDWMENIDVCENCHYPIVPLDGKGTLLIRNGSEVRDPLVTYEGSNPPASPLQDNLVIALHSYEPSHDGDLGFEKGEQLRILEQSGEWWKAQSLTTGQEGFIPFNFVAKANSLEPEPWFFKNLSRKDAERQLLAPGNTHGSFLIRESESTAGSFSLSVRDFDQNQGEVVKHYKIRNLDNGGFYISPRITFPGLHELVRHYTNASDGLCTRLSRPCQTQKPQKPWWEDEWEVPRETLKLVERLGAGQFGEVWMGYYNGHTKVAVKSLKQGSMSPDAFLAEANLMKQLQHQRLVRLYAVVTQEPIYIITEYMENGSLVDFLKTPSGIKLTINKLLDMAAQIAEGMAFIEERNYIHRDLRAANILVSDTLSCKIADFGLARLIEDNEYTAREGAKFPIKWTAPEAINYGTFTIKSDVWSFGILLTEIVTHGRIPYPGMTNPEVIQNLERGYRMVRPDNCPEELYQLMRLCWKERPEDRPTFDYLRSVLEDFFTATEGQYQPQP
Also: in the data inactive means no Kd found up to 30 µM.

Structure (SMILES)	Kd [1]	Kd [2]	Kd [3]	Kd [4]	Kd [5]	Kd [6]	Kd [7]	Kd [8]	Kd [9]
CCc1cnn2c(NCc3ccc[n+]([O-])c3)cc(N3CCCC[C@H]3CCO)nc12 [DINACICLIB]	2.44 µM (active)	> 30 µM (inactive)	> 30 µM (inactive)	> 30 µM (inactive)	> 30 µM (inactive)	> 30 µM (inactive)	0.098 µM (active)	> 30 µM (inactive)	–
Cn1ncc(Cl)c1-c1cc(C(=O)N[C@H](CN)Cc2cccc(F)c2)sc1Cl [AFURESERTIB]	> 30 µM (inactive)	–	> 30 µM (inactive)	> 30 µM (inactive)	> 30 µM (inactive)	> 30 µM (inactive)	> 30 µM (inactive)	> 30 µM (inactive)	> 30 µM (inactive)
CC[C@H](Nc1ncnc2[nH]cnc12)c1nc2cccc(F)c2c(=O)n1-c1ccccc1 [IDELALISIB]	> 30 µM (inactive)	–	> 30 µM (inactive)	> 30 µM (inactive)	> 30 µM (inactive)	> 30 µM (inactive)	> 30 µM (inactive)	> 30 µM (inactive)	> 30 µM (inactive)
O=C(O)[C@]1(Cc2cccc(Nc3nccs3)n2)CC[C@@H](Oc2cccc(Cl)c2F)CC1 [MK-5108]	> 30 µM (inactive)	> 30 µM (inactive)	> 30 µM (inactive)	> 30 µM (inactive)	> 30 µM (inactive)	> 30 µM (inactive)	> 30 µM (inactive)	> 30 µM (inactive)	> 30 µM (inactive)
COc1cc2nccc(Oc3ccc(NC(=O)NC4CC4)c(Cl)c3)c2cc1C(N)=O [LENVATINIB]	> 30 µM (inactive)	> 30 µM (inactive)	> 30 µM (inactive)	> 30 µM (inactive)	1.52 µM (active)	> 30 µM (inactive)	–	> 30 µM (inactive)	> 30 µM (inactive)
OCCn1cc(-c2cnc3nnn(Cc4ccc5ncccc5c4)c3n2)cn1 [PF-04217903]	> 30 µM (inactive)	> 30 µM (inactive)	> 30 µM (inactive)	> 30 µM (inactive)	> 30 µM (inactive)	> 30 µM (inactive)	> 30 µM (inactive)	> 30 µM (inactive)	–
CN1CCN(c2ccc3nc(-c4c(N)c5c(F)cccc5[nH]c4=O)[nH]c3c2)CC1 [DOVITINIB]	–	> 30 µM (inactive)	> 30 µM (inactive)	> 30 µM (inactive)	3.01 µM (active)	–	–	> 30 µM (inactive)	–
Cc1cc(Nc2cc(N3CCN(C)CC3)nc(/C=C/c3ccccc3)n2)n[nH]1 [ENMD-2076]	–	> 30 µM (inactive)	> 30 µM (inactive)	> 30 µM (inactive)	> 30 µM (inactive)	> 30 µM (inactive)	–	> 30 µM (inactive)	–
Cc1ccc(NC(=O)c2ccc(CN3CC[C@H](N(C)C)C3)c(C(F)(F)F)c2)cc1Nc1nccc(-c2cncnc2)n1 [BAFETINIB]	> 30 µM (inactive)	> 30 µM (inactive)	> 30 µM (inactive)	–	6.87 µM	> 30 µM (inactive)	> 30 µM (inactive)	> 30 µM (inactive)	–
COc1cc(CCc2cc(NC(=O)c3ccc(N4C[C@@H](C)N[C@@H](C)C4)cc3)n[nH]2)cc(OC)c1 [AZD-4547]	> 30 µM (inactive)	> 30 µM (inactive)	> 30 µM (inactive)	> 30 µM (inactive)	> 30 µM (inactive)	> 30 µM (inactive)	–	> 30 µM (inactive)	> 30 µM (inactive)
CCn1c(-c2nonc2N)nc2c(C#CC(C)(C)O)ncc(OC[C@H]3CCCNC3)c21 [GSK-690693]	–	> 30 µM (inactive)	> 30 µM (inactive)	> 30 µM (inactive)	> 30 µM (inactive)	–	–	> 30 µM (inactive)	–
O=C(Nc1cccc(Cl)c1)Nc1ncc(CCNc2ncnc3ccsc23)s1 [SNS-314]	> 30 µM (inactive)	> 30 µM (inactive)	> 30 µM (inactive)	> 30 µM (inactive)	> 30 µM (inactive)	> 30 µM (inactive)	> 30 µM (inactive)	> 30 µM (inactive)	–
C1=C/COCc2cc(ccc2OCCN2CCCC2)Nc2nccc(n2)-c2cccc(c2)COC/1 [PACRITINIB]	> 30 µM (inactive)	> 30 µM (inactive)	> 30 µM (inactive)	> 30 µM (inactive)	–	7.69 µM (active)	> 30 µM (inactive)	> 30 µM (inactive)	6.54 µM (active)
CNC(=O)c1ccc(-c2cnc3ncc(Cc4ccc5ncccc5c4)n3n2)cc1F [CAPMATINIB]	> 30 µM (inactive)	> 30 µM (inactive)	> 30 µM (inactive)	–	> 30 µM (inactive)	> 30 µM (inactive)	> 30 µM (inactive)	> 30 µM (inactive)	> 30 µM (inactive)
C[C@@H](c1ccc2nccn2c1)n1nnc2ncc(-c3cnn(C)c3)nc21 [SAVOLITINIB]	> 30 µM (inactive)	–	> 30 µM (inactive)	> 30 µM (inactive)	0.206 µM (active)	> 30 µM (inactive)	> 30 µM (inactive)	> 30 µM (inactive)	> 30 µM (inactive)
Cc1cn(-c2cc(NC(=O)c3ccc(C)c(Nc4nccc(-c5cccnc5)n4)c3)cc(C(F)(F)F)c2)cn1 [NILOTINIB]	–	> 30 µM (inactive)	> 30 µM (inactive)	> 30 µM (inactive)	1.48 µM (active)	–	–	> 30 µM (inactive)	–
Nc1nc(N)c2nc(-c3cccc(O)c3)c(-c3cccc(O)c3)nc2n1 [TG100-115]	–	> 30 µM (inactive)	> 30 µM (inactive)	> 30 µM (inactive)	> 30 µM (inactive)	–	–	> 30 µM (inactive)	–
CN1CCC(COc2cnc(-c3cccc(Cn4nc(-c5cccc(C#N)c5)ccc4=O)c3)nc2)CC1 [TEPOTINIB]	> 30 µM (inactive)	> 30 µM (inactive)	> 30 µM (inactive)	> 30 µM (inactive)	0.875 µM (active)	> 30 µM (inactive)	–	> 30 µM (inactive)	> 30 µM (inactive)
Cc1nc(N)sc1-c1ccnc(Nc2ccc(N3CCOCC3)cc2)n1 [CYC-116]	–	> 30 µM (inactive)	> 30 µM (inactive)	> 30 µM (inactive)	0.648 µM (active)	52.8 µM (active)	0.013 µM	> 30 µM (inactive)	–
Cc1c(F)cc(C(=O)NC2CC2)cc1-c1ccc(C(=O)NCC(C)(C)C)cn1 [LOSMAPIMOD]	> 30 µM (inactive)	–	> 30 µM (inactive)	> 30 µM (inactive)	> 30 µM (inactive)	> 30 µM (inactive)	> 30 µM (inactive)	> 30 µM (inactive)	> 30 µM (inactive)
CNS(=O)(=O)Nc1nccc(Cc2c(C)c3ccc(Oc4ncccn4)cc3oc2=O)c1F [AVUTOMETINIB]	> 30 µM (inactive)	> 30 µM (inactive)	> 30 µM (inactive)	> 30 µM (inactive)	> 30 µM (inactive)	> 30 µM (inactive)	–	> 30 µM (inactive)	> 30 µM (inactive)
